Test results: patent US20250154169A1, “COMPOUNDS AND METHODS FOR MODULATING SPLICING” (REMIX THERAPEUTICS INC., priority 2021, published 2025)
Counter-ions that a name gives are not always drawn. Like-named read-outs stand apart in the source and are kept apart here.

Assays:
Type in all cases: cell-based, human
[1] = system: HTT mRNA; assay: Splicing RT-qPCR assay, HTT canonical (CJ) and alternative (AJ) junction mRNA; conditions: Homo sapiens
Method in brief: (§1)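 A673 or K562 cells were treated 24 h at 37 °C with an 11-point 3-fold compound dilution series (top 10 uM, DMSO ≤0.25%). Lysates went to one-step RT-qPCR measuring canonical (CJ) and alternative-exon (AJ) junction transcripts, normalized to GAPDH, GUSB or PPIA.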

[2] = system: MYB mRNA; assay: Splicing RT-qPCR assay, MYB canonical (CJ) and alternative (AJ) junction mRNA; conditions: Homo sapiens
Method in brief: as §1

[3] = system: SMN2 mRNA; assay: Splicing RT-qPCR gene panel, SMN2 canonical junction (CJ) mRNA; conditions: Homo sapiens, Tables 4A/4B, read-out: SMN2 (IC50, decrease in CJ mRNA, gene panel)
Method in brief: (§2)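 Cells (A673 in DMEM/10% FBS, K562 in IMDM/10% FBS) got compound for 24 h, top dose 10 uM, 11 points, 3-fold steps, DMSO ≤0.25%. Lysates went to RT-qPCR for the canonical exon-exon junction; ΔΔCt against housekeeper and DMSO gave RQ, then percentage response.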

[4] = system: Target C mRNA; assay: Splicing RT-qPCR gene panel, Target C canonical junction (CJ) mRNA; conditions: Homo sapiens, Tables 4A/4B, read-out: Target C (IC50, decrease in CJ mRNA, gene panel)
Method in brief: as §2

[5] = system: HTT mRNA; assay: Splicing RT-qPCR gene panel, HTT canonical junction (CJ) mRNA; conditions: Homo sapiens, Tables 4A/4B, read-out: HTT (IC50, decrease in CJ mRNA, gene panel)
Method in brief: as §2

[6] = 24 h, A673 or K562 cells, 24 hours compound treatment, read-out: HTT CJ (IC50, decrease in canonical junction mRNA)
[7] = A673 or K562 cells, 24 hours compound treatment, read-out: HTT AJ (AC50, increase in alternative junction mRNA)
[8] = 24 h, A673 or K562 cells, 24 hours compound treatment, RT-qPCR, read-out: MYB AJ (AC50, increase in alternative junction mRNA)
[9] = 24 h, A673 or K562 cells, 24 hours compound treatment, RT-qPCR, read-out: MYB CJ (IC50, decrease in canonical junction mRNA)
[10] = Tables 4A/4B, canonical junction qPCR panel, read-out: MYB (IC50, decrease in CJ mRNA, gene panel)
[11] = Table 3B, alternative junction mRNA, read-out: HTT AJ (AC50, increase in AJ mRNA)
[12] = Table 3B, canonical junction mRNA, read-out: HTT CJ (IC50, decrease in CJ mRNA)
[13] = Table 3B, canonical junction mRNA, RT-qPCR, read-out: MYB CJ (IC50, decrease in CJ mRNA)
[14] = Table 3B, alternative junction mRNA, RT-qPCR, read-out: MYB AJ (AC50, increase in AJ mRNA)

Compound	IC50 [1, 6] [µM]	IC50 [2, 9] [µM]	IC50 [2, 10] [µM]	IC50 [3] [µM]	IC50 [4] [µM]	IC50 [5] [µM]	IC50 [1, 12] [µM]	IC50 [2, 13] [µM]	AC50 [1, 7] [µM]	AC50 [2, 8] [µM]	AC50 [1, 11] [µM]	AC50 [2, 14] [µM]
CC(=O)NC1CCN(c2ccc(C(=O)Nc3cc(F)c4nc(C)cn4c3)c3nn(C)cc23)CC1 [Compound 328, 4-(4-acetamidopiperidin-1-yl)-N-{8-fluoro-2-methylimidazo[1,2-a]pyridin-6-yl}-2-methylindazole-7-carboxamide]	> 10	1 to 10	1 to 10	0.1 to 1	> 10	> 10			> 10	> 10		
CC1=NC2C=C(NC(=O)c3ccc(N(C)C4CCN(C)CC4)c4cn(C)nc34)C=C(F)C2=N1 (stereo not shown) [Compound 245]	0.1 to 1	0.1 to 1	0.1 to 1	< 0.1	0.1 to 1	0.1 to 1			0.1 to 1	0.1 to 1		
Cc1cc(NC(=O)c2ccc(N3CCNCC3)c3cn(C)nc23)cc2c1nc(C)n2C [Compound 321, 2-methyl-4-(piperazin-1-yl)-N-(2,3,7-trimethyl-1,3-benzodiazol-5-yl) indazole-7-carboxamide trifluoroacetate]	> 10	> 10	> 10	> 10	> 10	> 10			> 10	> 10		
Cc1cn2cc(NC(=O)c3ccc(N4CCNCC4)c4cn(CC(C)(F)F)nc34)cc(F)c2n1 [Compound 364, 2-(2,2-difluoropropyl)-N-{8-fluoro-2-methylimidazo[1,2-a]pyridin-6-yl}-4-(piperazin-1-yl) indazole-7-carboxamide; trifluoroacetic acid]	1 to 10	1 to 10	1 to 10	< 0.1	> 10	1 to 10			> 10	0.1 to 1		
CCn1cc2c(N3C[C@@H](C)N[C@@H](C)C3)ncc(C(=O)Nc3cc(F)c4nc(C)cn4c3)c2n1 [Compound 952]			0.1 to 1	< 0.1	0.1 to 1	0.1 to 1	0.1 to 1	0.1 to 1			0.1 to 1	0.1 to 1
Cc1cn2cc(NC(=O)c3ccc(N4CCNCC4)c4cn(CCO)nc34)cc(F)c2n1 [Compound 291, N-{8-fluoro-2-methylimidazo[1,2-a]pyridin-6-yl}-2-(2-hydroxyethyl)-4-(piperazin-1-yl)indazole-7-carboxamide hydrochloride]	1 to 10	0.1 to 1	0.1 to 1	< 0.1	1 to 10	1 to 10			1 to 10	0.1 to 1		
Cc1cn2cc(NC(=O)c3ccc(N4CCNCC4)c4cn(CC(F)(F)F)nc34)cc(F)c2n1 [Compound 316, N-{8-fluoro-2-methylimidazo[1,2-a]pyridin-6-yl}-4-(piperazin-1-yl)-2-(2,2,2-trifluoroethyl)indazole-7-carboxamide]	> 10	1 to 10	1 to 10	0.1 to 1	> 10	> 10			> 10	0.1 to 1		
Cc1cn2cc(NC(=O)c3ccc(C4CC(C)(C)NC(C)(C)C4)c4cn(C)nc34)cc(F)c2n1 [Compound 212]	1 to 10	0.1 to 1	0.1 to 1	0.1 to 1	> 10	1 to 10			> 10	1 to 10		
Cc1cn2cc(NC(=O)c3ccc(N4CCNCC4)c4cn(C5COC5)nc34)cc(F)c2n1 [Compound 295, N-{8-fluoro-2-methylimidazo[1,2-a]pyridin-6-yl}-2-(oxetan-3-yl)-4-(piperazin-1-yl)indazole-7-carboxamide]	> 10	0.1 to 1	0.1 to 1	< 0.1	> 10	> 10			1 to 10	0.1 to 1		
CCN(CC)C1CCN(c2ccc(C(=O)Nc3cc(F)c4nc(C)cn4c3)c3nn(CCOC)cc23)C1 (stereo not shown) [Compound 330, 4-(3-(diethylamino)pyrrolidin-1-yl)-N-(8-fluoro-2-methylimidazo[1,2-a]pyridin-6-yl)-2-(2-methoxyethyl)-2H-indazole-7-carboxamide compound with 2,2,2-trifluoro-113-ethan-1-one]	> 10	0.1 to 1	0.1 to 1	< 0.1	> 10	> 10			> 10	0.1 to 1		
Cc1cn2cc(NC(=O)c3ccc(N4CCNCC4)c4cn(Cc5cncnc5)nc34)cc(F)c2n1 [Compound 318, N-{8-fluoro-2-methylimidazo[1,2-a]pyridin-6-yl}-4-(piperazin-1-yl)-2-(pyrimidin-5-ylmethyl)indazole-7-carboxamide]	> 10	0.1 to 1	0.1 to 1	< 0.1	> 10	> 10			> 10	0.1 to 1		

Continued, in another order:

IC50 [1, 6] [µM]	IC50 [2, 9] [µM]	IC50 [2, 10] [µM]	IC50 [3] [µM]	IC50 [4] [µM]	IC50 [5] [µM]	IC50 [1, 12] [µM]	IC50 [2, 13] [µM]	Compound	AC50 [1, 7] [µM]	AC50 [2, 8] [µM]	AC50 [1, 11] [µM]	AC50 [2, 14] [µM]
0.1 to 1	< 0.1	< 0.1	< 0.1	1 to 10	0.1 to 1			CCn1cc2c(N3C[C@@H](C)N[C@@H](C)C3)cc(F)c(C(=O)Nc3cc(F)c4nc(C)cn4c3)c2n1 [Compound 475, 4-[(3R,5S)-3,5-dimethylpiperazin-1-yl]-2-ethyl-6-fluoro-N-{8-fluoro-2-methylimidazo[1,2-a]pyridin-6-yl}indazole-7-carboxamide; trifluoroacetic acid]	0.1 to 1	< 0.1		
1 to 10	0.1 to 1	0.1 to 1	< 0.1	> 10	1 to 10			CCNC1CCN(c2ccc(C(=O)Nc3cc(F)c4nc(C)cn4c3)c3nn(CCOC)cc23)CC1 [Compound 307, 4-[4-(ethylamino)piperidin-1-yl]-N-{8-fluoro-2-methylimidazo[1,2-a]pyridin-6-yl}-2-(2-methoxyethyl) indazole-7-carboxamide]	1 to 10	0.1 to 1		
1 to 10	0.1 to 1	0.1 to 1	< 0.1	> 10	1 to 10			Cc1cn2cc(NC(=O)c3ccc(N4CC5(CN(C)C5)C4)c4cc(C)oc34)cc(F)c2n1 [Compound 206]	1 to 10	0.1 to 1		
1 to 10	0.1 to 1	< 0.1	< 0.1	> 10	> 10			CCOc1nc(NC(=O)c2ccc(N3CC[C@H](NC)C3)c3cn(C)nc23)cn2cc(C)nc12 [Compound 434]	1 to 10	1 to 10		
		< 0.1	< 0.1	0.1 to 1	< 0.1	< 0.1	< 0.1	Cc1cn2cc(NC(=O)c3ccc(N4CCNCC4)c4nc(C)nn34)cc(F)c2n1 [Compound 946]			0.1 to 1	< 0.1
1 to 10	0.1 to 1	< 0.1	< 0.1	> 10	1 to 10			CN[C@H]1CCN(c2ccc(C(=O)Nc3cn4cc(C)nc4c(OC)n3)c3nn(C)cc23)C1 [Compound 442]	> 10	0.1 to 1		
		< 0.1	< 0.1	1 to 10	0.1 to 1	0.1 to 1	< 0.1	Cc1cn2cc(NC(=O)c3ccc(N4C[C@@H](C)N[C@@H](C)C4)c4nsnc34)cc(F)c2n1 [Compound 978]			0.1 to 1	< 0.1
1 to 10	0.1 to 1	< 0.1	< 0.1	> 10	1 to 10			CCn1cc2c(N3CCN(C)CC3)ccc(C(=O)Nc3cc(F)c4nc(C)cn4c3)c2n1 [Compound 378, 2-ethyl-N-{8-fluoro-2-methylimidazo[1,2-a]pyridin-6-yl}-4-(4-methylpiperazin-1-yl) indazole-7-carboxamide]	1 to 10	0.1 to 1		
> 10	< 0.1	< 0.1	< 0.1	> 10	> 10			Cc1cn2cc(NC(=O)c3ccc(N4CC[C@@H](N)C4)c4cn(C)nc34)cc(F)c2n1 [Compound 381, 4-[(3R)-3-aminopyrrolidin-1-yl]-N-{8-fluoro-2-methylimidazo[1,2-a]pyridin-6-yl}-2-methylindazole-7-carboxamide]	> 10	< 0.1		
